{
  "source": "paper PMC10838953",
  "assay_in_all_cases": "biochemical",
  "key": {"BIKE": {"target": "BIKE (Homo sapiens, UniProt Q9NSY1)", "details": "read-out: %Ctrl @ 2000nM"}, "SIK2": {"target": "SIK2 (Homo sapiens, UniProt Q9H0K1)", "details": "read-out: %Ctrl @ 2000nM"}, "FYN": {"target": "FYN (Homo sapiens, UniProt P06241)", "details": "read-out: %Ctrl @ 2000nM"}, "LRRK2": {"target": "LRRK2 (Homo sapiens, UniProt Q5S007)", "details": "read-out: %Ctrl @ 2000nM"}, "PCTK3": {"target": "PCTK3 (Homo sapiens, UniProt Q07002)", "details": "read-out: %Ctrl @ 2000nM"}, "BMPR2": {"target": "BMPR2 (Homo sapiens, UniProt Q13873)", "sequence (Q13873 27-1038)": "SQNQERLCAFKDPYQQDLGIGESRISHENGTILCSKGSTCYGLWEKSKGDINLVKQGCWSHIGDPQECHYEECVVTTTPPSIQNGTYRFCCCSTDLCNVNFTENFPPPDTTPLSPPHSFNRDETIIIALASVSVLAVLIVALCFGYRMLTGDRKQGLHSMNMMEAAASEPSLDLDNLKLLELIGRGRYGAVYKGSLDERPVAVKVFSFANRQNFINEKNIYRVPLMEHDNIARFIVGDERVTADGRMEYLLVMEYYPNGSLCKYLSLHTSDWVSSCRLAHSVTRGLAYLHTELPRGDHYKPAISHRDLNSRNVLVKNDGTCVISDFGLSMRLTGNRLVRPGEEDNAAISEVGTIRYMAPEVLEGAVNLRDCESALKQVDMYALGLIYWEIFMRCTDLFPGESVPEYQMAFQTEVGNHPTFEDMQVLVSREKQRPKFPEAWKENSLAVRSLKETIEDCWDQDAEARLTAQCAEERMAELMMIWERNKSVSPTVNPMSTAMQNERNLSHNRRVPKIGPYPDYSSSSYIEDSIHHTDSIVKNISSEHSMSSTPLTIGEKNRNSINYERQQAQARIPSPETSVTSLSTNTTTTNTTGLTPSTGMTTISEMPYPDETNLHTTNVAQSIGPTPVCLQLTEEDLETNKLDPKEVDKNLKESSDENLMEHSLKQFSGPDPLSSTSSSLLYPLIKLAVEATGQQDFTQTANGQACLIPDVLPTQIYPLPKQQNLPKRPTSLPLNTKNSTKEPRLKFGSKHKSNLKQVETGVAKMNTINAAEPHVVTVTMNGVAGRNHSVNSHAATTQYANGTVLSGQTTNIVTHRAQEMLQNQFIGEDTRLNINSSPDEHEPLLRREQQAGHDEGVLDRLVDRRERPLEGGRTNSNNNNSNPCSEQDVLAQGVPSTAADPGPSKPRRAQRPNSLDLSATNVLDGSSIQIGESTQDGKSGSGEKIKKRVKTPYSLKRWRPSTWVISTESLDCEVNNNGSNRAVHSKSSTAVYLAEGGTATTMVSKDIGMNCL", "details": "read-out: %Ctrl @ 2000nM"}, "DCAMKL1": {"target": "DCAMKL1 (Homo sapiens, UniProt O15075)", "details": "read-out: %Ctrl @ 2000nM"}, "TSSK3": {"target": "TSSK3 (Homo sapiens, UniProt Q96PN8)", "details": "read-out: %Ctrl @ 2000nM"}, "PRKD2": {"target": "PRKD2 (Homo sapiens, UniProt Q9BZL6)", "details": "read-out: %Ctrl @ 2000nM"}, "MLK1": {"target": "MLK1 (Homo sapiens, UniProt P80192)", "details": "read-out: %Ctrl @ 2000nM"}, "[1]": {"target": "ABL1(F317L)-phosphorylated (Homo sapiens, UniProt P00519, F317L)", "details": "read-out: %Ctrl @ 2000nM"}, "GRK1": {"target": "GRK1 (Homo sapiens, UniProt Q15835)", "details": "read-out: %Ctrl @ 2000nM"}, "[2]": {"target": "RPS6KA5(Kin.Dom.2-C-terminal) (Homo sapiens, UniProt O75582)", "sequence (O75582 388-802 limits assumed)": "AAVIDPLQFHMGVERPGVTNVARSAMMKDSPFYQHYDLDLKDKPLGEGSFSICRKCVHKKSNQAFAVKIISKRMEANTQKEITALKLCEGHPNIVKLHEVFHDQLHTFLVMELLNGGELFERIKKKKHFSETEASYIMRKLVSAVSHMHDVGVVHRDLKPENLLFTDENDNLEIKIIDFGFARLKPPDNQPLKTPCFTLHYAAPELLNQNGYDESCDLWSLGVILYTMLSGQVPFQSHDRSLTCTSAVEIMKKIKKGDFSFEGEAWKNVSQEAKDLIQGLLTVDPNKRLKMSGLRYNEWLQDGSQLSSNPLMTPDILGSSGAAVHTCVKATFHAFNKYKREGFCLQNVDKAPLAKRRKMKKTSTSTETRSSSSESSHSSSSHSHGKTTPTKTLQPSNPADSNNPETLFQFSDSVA"}, "DAPK1": {"target": "DAPK1 (Homo sapiens, UniProt P53355)", "details": "read-out: %Ctrl @ 2000nM"}, "STK35": {"target": "STK35 (Homo sapiens, UniProt Q8TDR2)", "details": "read-out: %Ctrl @ 2000nM"}, "PHKG1": {"target": "PHKG1 (Homo sapiens, UniProt Q16816)", "details": "read-out: %Ctrl @ 2000nM"}, "CAMK1": {"target": "CAMK1 (Homo sapiens, UniProt Q14012)", "details": "read-out: %Ctrl @ 2000nM"}, "TIE1": {"target": "TIE1 (Homo sapiens, UniProt P35590)", "sequence (P35590 22-1138)": "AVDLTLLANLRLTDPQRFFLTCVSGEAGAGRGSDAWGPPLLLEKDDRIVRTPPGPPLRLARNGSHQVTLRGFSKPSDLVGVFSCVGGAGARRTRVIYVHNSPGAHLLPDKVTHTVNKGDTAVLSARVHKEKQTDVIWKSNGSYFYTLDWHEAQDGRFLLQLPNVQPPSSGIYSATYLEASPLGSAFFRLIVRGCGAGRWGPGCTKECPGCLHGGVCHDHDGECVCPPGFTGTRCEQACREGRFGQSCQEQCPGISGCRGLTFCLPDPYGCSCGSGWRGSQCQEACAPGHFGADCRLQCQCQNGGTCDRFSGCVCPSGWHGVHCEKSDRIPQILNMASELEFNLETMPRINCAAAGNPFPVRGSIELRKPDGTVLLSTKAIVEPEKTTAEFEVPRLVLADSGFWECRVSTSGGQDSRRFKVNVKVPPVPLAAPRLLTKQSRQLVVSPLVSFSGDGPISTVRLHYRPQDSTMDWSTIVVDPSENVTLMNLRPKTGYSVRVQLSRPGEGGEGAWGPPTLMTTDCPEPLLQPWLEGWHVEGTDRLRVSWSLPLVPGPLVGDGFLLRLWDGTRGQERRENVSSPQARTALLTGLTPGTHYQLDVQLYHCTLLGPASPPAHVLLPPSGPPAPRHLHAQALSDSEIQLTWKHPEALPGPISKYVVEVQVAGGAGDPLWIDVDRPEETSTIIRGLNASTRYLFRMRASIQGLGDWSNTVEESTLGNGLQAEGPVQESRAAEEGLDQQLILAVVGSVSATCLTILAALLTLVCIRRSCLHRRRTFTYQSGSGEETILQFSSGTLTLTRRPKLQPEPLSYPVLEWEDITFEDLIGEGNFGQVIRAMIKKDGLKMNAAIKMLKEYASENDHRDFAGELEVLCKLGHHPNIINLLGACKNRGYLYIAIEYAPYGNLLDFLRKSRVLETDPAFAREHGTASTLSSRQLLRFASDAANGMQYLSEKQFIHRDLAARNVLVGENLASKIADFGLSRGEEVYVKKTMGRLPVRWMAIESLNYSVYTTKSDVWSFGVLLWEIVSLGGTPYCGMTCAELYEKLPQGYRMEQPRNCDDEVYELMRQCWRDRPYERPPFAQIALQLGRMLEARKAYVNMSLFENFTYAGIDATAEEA", "details": "read-out: %Ctrl @ 2000nM"}, "PDPK1": {"target": "PDPK1 (Homo sapiens, UniProt O15530)", "details": "read-out: %Ctrl @ 2000nM"}, "AMPK-alpha2": {"target": "AMPK-alpha2 (Homo sapiens, UniProt P54646)", "details": "read-out: %Ctrl @ 2000nM"}, "NEK11": {"target": "NEK11 (Homo sapiens, UniProt Q8NG66)", "details": "read-out: %Ctrl @ 2000nM"}, "PIK3CA(H1047Y)": {"target": "PIK3CA(H1047Y) (Homo sapiens, UniProt P42336, H1047Y)", "details": "read-out: %Ctrl @ 2000nM"}, "IKK-alpha": {"target": "IKK-alpha (Homo sapiens, UniProt O15111)", "details": "read-out: %Ctrl @ 2000nM"}, "[3]": {"target": "RPS6KA4(Kin.Dom.2-C-terminal) (Homo sapiens, UniProt O75676)", "details": "read-out: %Ctrl @ 2000nM"}, "NEK1": {"target": "NEK1 (Homo sapiens, UniProt Q96PY6)", "details": "read-out: %Ctrl @ 2000nM"}, "TRPM6": {"target": "TRPM6 (Homo sapiens, UniProt Q9BX84)", "details": "read-out: %Ctrl @ 2000nM"}, "EPHB4": {"target": "EPHB4 (Homo sapiens, UniProt P54760)", "details": "read-out: %Ctrl @ 2000nM"}, "DRAK2": {"target": "DRAK2 (Homo sapiens, UniProt O94768)", "details": "read-out: %Ctrl @ 2000nM"}, "CHEK2": {"target": "CHEK2 (Homo sapiens, UniProt O96017)", "sequence (O96017 whole entry)": "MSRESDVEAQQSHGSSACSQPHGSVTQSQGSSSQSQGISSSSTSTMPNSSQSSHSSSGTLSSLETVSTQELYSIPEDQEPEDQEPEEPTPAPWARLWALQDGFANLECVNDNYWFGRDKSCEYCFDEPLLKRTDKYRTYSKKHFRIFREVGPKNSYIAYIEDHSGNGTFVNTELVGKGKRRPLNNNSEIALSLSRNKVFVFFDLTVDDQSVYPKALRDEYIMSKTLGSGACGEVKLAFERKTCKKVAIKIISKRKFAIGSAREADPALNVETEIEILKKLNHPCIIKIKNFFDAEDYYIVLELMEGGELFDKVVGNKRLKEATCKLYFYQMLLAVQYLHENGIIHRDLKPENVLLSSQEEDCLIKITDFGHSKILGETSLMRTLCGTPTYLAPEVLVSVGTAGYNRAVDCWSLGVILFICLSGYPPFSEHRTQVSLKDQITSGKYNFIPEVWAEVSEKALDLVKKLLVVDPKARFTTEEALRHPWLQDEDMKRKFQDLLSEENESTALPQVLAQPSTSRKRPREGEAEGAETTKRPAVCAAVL", "details": "read-out: %Ctrl @ 2000nM"}, "BRK": {"target": "BRK (Homo sapiens, UniProt Q13882)", "details": "read-out: %Ctrl @ 2000nM"}, "ULK3": {"target": "ULK3 (Homo sapiens, UniProt Q6PHR2)", "details": "read-out: %Ctrl @ 2000nM"}, "RIOK2": {"target": "RIOK2 (Homo sapiens, UniProt Q9BVS4)", "details": "read-out: %Ctrl @ 2000nM"}, "HIPK1": {"target": "HIPK1 (Homo sapiens, UniProt Q86Z02)", "details": "read-out: %Ctrl @ 2000nM"}, "ABL1-nonphosphorylated": {"target": "ABL1-nonphosphorylated (Homo sapiens, UniProt P00519)", "details": "read-out: %Ctrl @ 2000nM"}, "TEC": {"target": "TEC (Homo sapiens, UniProt P42680)", "details": "read-out: %Ctrl @ 2000nM"}, "BRAF": {"target": "BRAF (Homo sapiens, UniProt P15056)", "details": "read-out: %Ctrl @ 2000nM"}, "FGFR3(G697C)": {"target": "FGFR3(G697C) (Homo sapiens, UniProt P22607, G697C)", "sequence (P22607 23-806 G697C)": "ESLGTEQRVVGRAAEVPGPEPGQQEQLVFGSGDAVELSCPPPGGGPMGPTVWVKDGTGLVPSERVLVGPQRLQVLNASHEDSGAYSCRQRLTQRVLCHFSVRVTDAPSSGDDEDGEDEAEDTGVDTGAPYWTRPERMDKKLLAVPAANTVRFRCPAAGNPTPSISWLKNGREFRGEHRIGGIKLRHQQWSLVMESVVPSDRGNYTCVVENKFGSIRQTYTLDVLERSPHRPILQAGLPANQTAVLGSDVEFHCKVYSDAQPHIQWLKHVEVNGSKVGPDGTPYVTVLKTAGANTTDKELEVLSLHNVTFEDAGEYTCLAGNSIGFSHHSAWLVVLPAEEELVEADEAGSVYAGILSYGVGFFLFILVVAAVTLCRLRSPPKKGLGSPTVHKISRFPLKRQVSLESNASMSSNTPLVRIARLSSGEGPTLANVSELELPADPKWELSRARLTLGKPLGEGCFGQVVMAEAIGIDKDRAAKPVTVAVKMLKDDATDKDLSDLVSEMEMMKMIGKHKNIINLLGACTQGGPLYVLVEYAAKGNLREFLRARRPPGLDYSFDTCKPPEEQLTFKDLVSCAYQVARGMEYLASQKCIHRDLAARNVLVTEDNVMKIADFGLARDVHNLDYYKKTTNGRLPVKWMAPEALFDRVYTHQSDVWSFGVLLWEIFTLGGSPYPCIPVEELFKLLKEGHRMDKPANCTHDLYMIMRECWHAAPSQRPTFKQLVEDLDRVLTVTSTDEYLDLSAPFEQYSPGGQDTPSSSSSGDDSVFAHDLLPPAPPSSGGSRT", "details": "read-out: %Ctrl @ 2000nM"}, "TGFBR1": {"target": "TGFBR1 (Homo sapiens, UniProt P36897)", "details": "read-out: %Ctrl @ 2000nM"}, "BMX": {"target": "BMX (Homo sapiens, UniProt P51813)", "sequence (P51813 whole entry)": "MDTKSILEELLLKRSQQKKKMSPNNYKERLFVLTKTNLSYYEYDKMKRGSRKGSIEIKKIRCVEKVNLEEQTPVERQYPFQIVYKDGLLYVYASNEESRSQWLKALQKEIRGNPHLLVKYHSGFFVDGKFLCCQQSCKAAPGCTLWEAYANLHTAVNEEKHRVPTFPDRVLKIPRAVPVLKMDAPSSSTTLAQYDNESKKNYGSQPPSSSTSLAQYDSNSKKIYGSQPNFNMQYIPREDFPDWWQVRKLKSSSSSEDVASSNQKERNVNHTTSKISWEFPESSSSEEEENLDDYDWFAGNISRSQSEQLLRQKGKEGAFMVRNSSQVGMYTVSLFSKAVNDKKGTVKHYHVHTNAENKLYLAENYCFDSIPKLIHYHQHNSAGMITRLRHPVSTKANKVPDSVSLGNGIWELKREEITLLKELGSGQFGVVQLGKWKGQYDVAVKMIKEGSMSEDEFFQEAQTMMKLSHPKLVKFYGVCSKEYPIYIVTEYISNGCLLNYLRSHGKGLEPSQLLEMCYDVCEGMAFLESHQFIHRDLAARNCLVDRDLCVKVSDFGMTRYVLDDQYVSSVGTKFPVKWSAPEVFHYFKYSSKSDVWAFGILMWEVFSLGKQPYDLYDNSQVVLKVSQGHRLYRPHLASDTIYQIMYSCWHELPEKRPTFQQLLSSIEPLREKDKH", "details": "read-out: %Ctrl @ 2000nM"}, "EGFR(L858R,T790M)": {"target": "EGFR(L858R,T790M) (Homo sapiens, UniProt P00533, L858R/T790M)", "details": "read-out: %Ctrl @ 2000nM"}, "[4]": {"target": "ABL1(F317I)-phosphorylated (Homo sapiens, UniProt P00519, F317I)", "details": "read-out: %Ctrl @ 2000nM"}, "EGFR(L747-T751del,Sins)": {"target": "EGFR(L747-T751del,Sins) (Homo sapiens, UniProt P00533, DEL747-750/T751S)", "sequence (P00533 with tags, fused parts or gaps DEL747-750/T751S)": "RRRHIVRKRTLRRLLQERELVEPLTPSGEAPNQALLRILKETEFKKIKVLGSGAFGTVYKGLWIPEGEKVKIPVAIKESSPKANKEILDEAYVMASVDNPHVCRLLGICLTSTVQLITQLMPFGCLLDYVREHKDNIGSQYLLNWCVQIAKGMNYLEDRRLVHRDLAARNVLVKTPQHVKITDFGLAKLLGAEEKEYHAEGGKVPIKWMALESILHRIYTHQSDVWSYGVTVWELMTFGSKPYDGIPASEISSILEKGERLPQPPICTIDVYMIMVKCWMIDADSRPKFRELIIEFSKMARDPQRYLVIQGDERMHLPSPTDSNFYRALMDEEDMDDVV", "details": "read-out: %Ctrl @ 2000nM"}},
  "data": [
    {"smiles": "CC(C)COC(=O)c1[nH]c2ccc(F)cc2c1-c1cn(CC2CCN(CCNS(=O)(=O)c3ccc(CC(C)C)cc3)CC2)nn1", "note": "[AB668, isobutyl 5-fluoro-3-(1-((1-(2-((4-isobutylphenyl)sulfonamido)ethyl)piperidin-4-yl)methyl)-1H-1,2,3-triazol-4-yl)-1H-indole-2-carboxylate]", "values": [
      {"measurement": "remaining activity at 2 µM", "setting": "BIKE", "value": 99, "unit": "%"},
      {"measurement": "remaining activity at 2 µM", "setting": "SIK2", "value": 100, "unit": "%"},
      {"measurement": "remaining activity at 2 µM", "setting": "FYN", "value": 64, "unit": "%"},
      {"measurement": "remaining activity at 2 µM", "setting": "LRRK2", "value": 65, "unit": "%"},
      {"measurement": "remaining activity at 2 µM", "setting": "PCTK3", "value": 91, "unit": "%"},
      {"measurement": "remaining activity at 2 µM", "setting": "BMPR2", "value": 100, "unit": "%"},
      {"measurement": "remaining activity at 2 µM", "setting": "DCAMKL1", "value": 71, "unit": "%"},
      {"measurement": "remaining activity at 2 µM", "setting": "TSSK3", "value": 98, "unit": "%"},
      {"measurement": "remaining activity at 2 µM", "setting": "PRKD2", "value": 88, "unit": "%"},
      {"measurement": "remaining activity at 2 µM", "setting": "MLK1", "value": 96, "unit": "%"},
      {"measurement": "remaining activity at 2 µM", "setting": "[1]", "value": 78, "unit": "%"},
      {"measurement": "remaining activity at 2 µM", "setting": "GRK1", "value": 80, "unit": "%"},
      {"measurement": "remaining activity at 2 µM", "setting": "[2]; read-out: %Ctrl @ 2000nM", "value": 43, "unit": "%"},
      {"measurement": "inhibition at 2 µM", "setting": "[2]; read-out: percentage inhibition", "value": "> 50", "unit": "%"},
      {"measurement": "remaining activity at 2 µM", "setting": "DAPK1", "value": 100, "unit": "%"},
      {"measurement": "remaining activity at 2 µM", "setting": "STK35", "value": 89, "unit": "%"},
      {"measurement": "remaining activity at 2 µM", "setting": "PHKG1", "value": 76, "unit": "%"},
      {"measurement": "remaining activity at 2 µM", "setting": "CAMK1", "value": 77, "unit": "%"},
      {"measurement": "remaining activity at 2 µM", "setting": "TIE1", "value": 89, "unit": "%"},
      {"measurement": "remaining activity at 2 µM", "setting": "PDPK1", "value": 98, "unit": "%"},
      {"measurement": "remaining activity at 2 µM", "setting": "AMPK-alpha2", "value": 100, "unit": "%"},
      {"measurement": "remaining activity at 2 µM", "setting": "NEK11", "value": 100, "unit": "%"},
      {"measurement": "remaining activity at 2 µM", "setting": "PIK3CA(H1047Y)", "value": 100, "unit": "%"},
      {"measurement": "remaining activity at 2 µM", "setting": "IKK-alpha", "value": 100, "unit": "%"},
      {"measurement": "remaining activity at 2 µM", "setting": "[3]", "value": 97, "unit": "%"},
      {"measurement": "remaining activity at 2 µM", "setting": "NEK1", "value": 73, "unit": "%"},
      {"measurement": "remaining activity at 2 µM", "setting": "TRPM6", "value": 81, "unit": "%"},
      {"measurement": "remaining activity at 2 µM", "setting": "EPHB4", "value": 79, "unit": "%"},
      {"measurement": "remaining activity at 2 µM", "setting": "DRAK2", "value": 100, "unit": "%"},
      {"measurement": "remaining activity at 2 µM", "setting": "CHEK2", "value": 100, "unit": "%"},
      {"measurement": "remaining activity at 2 µM", "setting": "BRK", "value": 72, "unit": "%"},
      {"measurement": "remaining activity at 2 µM", "setting": "ULK3", "value": 82, "unit": "%"},
      {"measurement": "remaining activity at 2 µM", "setting": "RIOK2", "value": 73, "unit": "%"},
      {"measurement": "remaining activity at 2 µM", "setting": "HIPK1", "value": 100, "unit": "%"},
      {"measurement": "remaining activity at 2 µM", "setting": "ABL1-nonphosphorylated", "value": 96, "unit": "%"},
      {"measurement": "remaining activity at 2 µM", "setting": "TEC", "value": 95, "unit": "%"},
      {"measurement": "remaining activity at 2 µM", "setting": "BRAF", "value": 100, "unit": "%"},
      {"measurement": "remaining activity at 2 µM", "setting": "FGFR3(G697C)", "value": 100, "unit": "%"},
      {"measurement": "remaining activity at 2 µM", "setting": "TGFBR1", "value": 84, "unit": "%"},
      {"measurement": "remaining activity at 2 µM", "setting": "BMX", "value": 85, "unit": "%"},
      {"measurement": "remaining activity at 2 µM", "setting": "EGFR(L858R,T790M)", "value": 83, "unit": "%"},
      {"measurement": "remaining activity at 2 µM", "setting": "[4]", "value": 96, "unit": "%"},
      {"measurement": "remaining activity at 2 µM", "setting": "EGFR(L747-T751del,Sins)", "value": 86, "unit": "%"}
    ]}
  ]
}
